Details: Liquid, Vibrating tube method

CCCCCCCCCC [decane]
mass density [kg/m3]
Details	283.15 K	288.15 K	293.15 K	298.15 K	303.15 K	308.15 K	313.15 K	318.15 K	323.15 K	328.15 K
100 kPa	737.4	733.69	729.94	726.19	722.46	718.65	714.79	710.99	707.17	703.3
5000 kPa	740.81	737.19	733.53	729.88	726.23	722.52	718.83	715.08	711.4	707.67
10000 kPa	744.17	740.63	737.08	733.52	729.98	726.36	722.76	719.13	715.55	711.97
15000 kPa	747.39	743.93	740.5	737	733.55	730.01	726.52	722.99	719.49	716.03
20000 kPa	750.49	747.14	743.76	740.37	736.98	733.55	730.14	726.69	723.28	719.87
25000 kPa	753.52	750.22	746.92	743.6	740.29	737.01	733.61	730.22	726.9	723.57
30000 kPa	756.43	753.19	749.98	746.72	743.46	740.13	736.95	733.65	730.37	727.1
35000 kPa	759.27	756.11	752.94	749.72	746.54	743.26	740.17	736.93	733.71	730.51
40000 kPa	762.02	758.92	755.79	752.67	749.5	746.32	743.25	740.05	736.93	733.79

COC(=O)OC [dimethyl carbonate]
mass density [kg/m3]
Details	283.15 K	288.15 K	293.15 K	298.15 K	303.15 K	308.15 K	313.15 K	318.15 K	323.15 K	328.15 K
100 kPa	1083.17	1076.43	1069.76	1063.1	1056.41	1049.66	1042.86	1036.04	1029.21	1022.24
5000 kPa	1087.33	1080.8	1074.22	1067.7	1061.17	1054.59	1047.94	1041.3	1034.63	1027.92
10000 kPa	1091.39	1085.02	1078.58	1072.21	1065.82	1059.39	1052.91	1046.44	1039.95	1033.45
15000 kPa	1095.34	1089.07	1082.76	1076.52	1070.29	1064	1057.67	1051.36	1045.04	1038.69
20000 kPa	1099.13	1093	1086.83	1080.7	1074.59	1068.43	1062.22	1056.08	1049.91	1043.71
25000 kPa	1102.79	1096.79	1090.73	1084.74	1078.74	1072.65	1066.6	1060.6	1054.58	1048.53
30000 kPa	1106.39	1100.48	1094.5	1088.62	1082.75	1076.8	1070.82	1064.95	1059.07	1053.14
35000 kPa	1109.85	1104.03	1098.19	1092.39	1086.6	1080.78	1074.93	1069.15	1063.39	1057.57
40000 kPa	1113.17	1107.5	1101.74	1096.04	1090.35	1084.63	1078.87	1073.21	1067.56	1061.87
